Test results from ChEMBL document CHEMBL3232809, “Synthesis, antibiotic activity and structure-activity relationship study of some 3-enaminetetramic acids” (2014).

The molecules below were run on Pseudomonas aeruginosa (assay: Antimicrobial activity against Pseudomonas aeruginosa ATCC 27853).
Format: functional

Compound	MIC
CCCCCCCCCC/C(NCCCOC(C)C)=C1\C(=O)C(CCSC)N(C(C)=O)C1=O (stereo not given)	> 32 µg/mL
CCN(CC)CCCC(C)N/C(CCCOc1ccccc1)=C1/C(=O)C(CC(C)C)N(C(=O)c2ccccc2)C1=O (stereo not given)	> 32 µg/mL
CC(C)(C)[C@H]1OC[C@@H]2C(=O)/C(=C(/NCCCCN)c3ccccc3)C(=O)N21	> 32 µg/mL
CC1CCCCN1CCCN/C(CC12CC3CC(C)(CC(C)(C3)C1)C2)=C1/C(=O)[C@@H]2CCCC(=O)N2C1=O (stereo not given in full)	> 32 µg/mL

Each molecule was assayed on Escherichia coli (assay: Antimicrobial activity against Escherichia coli ATCC 25922).
Format: functional

Compound	MIC
CCCCCCCCCC/C(NCCCOC(C)C)=C1\C(=O)C(CCSC)N(C(C)=O)C1=O (stereo not given)	> 32 µg/mL
CCN(CC)CCCC(C)N/C(CCCOc1ccccc1)=C1/C(=O)C(CC(C)C)N(C(=O)c2ccccc2)C1=O (stereo not given)	> 32 µg/mL
CC(C)(C)[C@H]1OC[C@@H]2C(=O)/C(=C(/NCCCCN)c3ccccc3)C(=O)N21	> 32 µg/mL
CC1CCCCN1CCCN/C(CC12CC3CC(C)(CC(C)(C3)C1)C2)=C1/C(=O)[C@@H]2CCCC(=O)N2C1=O (stereo not given in full)	> 32 µg/mL

What follows are molecules tested on Escherichia coli (assay: Antimicrobial activity against Escherichia coli 49).
Format: functional

Compound	MIC
CCCCCCCCCC/C(NCCCOC(C)C)=C1\C(=O)C(CCSC)N(C(C)=O)C1=O (stereo not given)	> 32 µg/mL
CCN(CC)CCCC(C)N/C(CCCOc1ccccc1)=C1/C(=O)C(CC(C)C)N(C(=O)c2ccccc2)C1=O (stereo not given)	> 32 µg/mL
CC(C)(C)[C@H]1OC[C@@H]2C(=O)/C(=C(/NCCCCN)c3ccccc3)C(=O)N21	> 32 µg/mL
CC1CCCCN1CCCN/C(CC12CC3CC(C)(CC(C)(C3)C1)C2)=C1/C(=O)[C@@H]2CCCC(=O)N2C1=O (stereo not given in full)	> 32 µg/mL

Each molecule was assayed on Staphylococcus aureus (assay: Antimicrobial activity against vancomycin-susceptible Staphylococcus aureus ATCC 25923).
Format: functional

Compound	MIC
CCCCCCCCCC/C(NCCCOC(C)C)=C1\C(=O)C(CCSC)N(C(C)=O)C1=O (stereo not given)	> 32 µg/mL
CCN(CC)CCCC(C)N/C(CCCOc1ccccc1)=C1/C(=O)C(CC(C)C)N(C(=O)c2ccccc2)C1=O (stereo not given)	> 32 µg/mL
CC(C)(C)[C@H]1OC[C@@H]2C(=O)/C(=C(/NCCCCN)c3ccccc3)C(=O)N21	> 32 µg/mL
CC1CCCCN1CCCN/C(CC12CC3CC(C)(CC(C)(C3)C1)C2)=C1/C(=O)[C@@H]2CCCC(=O)N2C1=O (stereo not given in full)	> 32 µg/mL

The molecules below were run on Streptococcus pneumoniae (assay: Antimicrobial activity against penicillin- and erythromycin-resistant Streptococcus pneumoniae in presence of 2.5% horse blood).
Format: functional

Compound	MIC
CCCCCCCCCC/C(NCCCOC(C)C)=C1\C(=O)C(CCSC)N(C(C)=O)C1=O (stereo not given)	> 32 µg/mL
CCN(CC)CCCC(C)N/C(CCCOc1ccccc1)=C1/C(=O)C(CC(C)C)N(C(=O)c2ccccc2)C1=O (stereo not given)	> 32 µg/mL
CC(C)(C)[C@H]1OC[C@@H]2C(=O)/C(=C(/NCCCCN)c3ccccc3)C(=O)N21	> 32 µg/mL
CC1CCCCN1CCCN/C(CC12CC3CC(C)(CC(C)(C3)C1)C2)=C1/C(=O)[C@@H]2CCCC(=O)N2C1=O (stereo not given in full)	> 32 µg/mL

The molecules below were run on Staphylococcus aureus (assay: Antimicrobial activity against Staphylococcus aureus Oxford).
Format: functional

Compound	MIC
CCCCCCCCCC/C(NCCCOC(C)C)=C1\C(=O)C(CCSC)N(C(C)=O)C1=O (stereo not given)	> 32 µg/mL
CCN(CC)CCCC(C)N/C(CCCOc1ccccc1)=C1/C(=O)C(CC(C)C)N(C(=O)c2ccccc2)C1=O (stereo not given)	> 32 µg/mL
CC(C)(C)[C@H]1OC[C@@H]2C(=O)/C(=C(/NCCCCN)c3ccccc3)C(=O)N21	> 32 µg/mL
CC1CCCCN1CCCN/C(CC12CC3CC(C)(CC(C)(C3)C1)C2)=C1/C(=O)[C@@H]2CCCC(=O)N2C1=O (stereo not given in full)	> 32 µg/mL

The molecules below were run on Haemophilus influenzae (assay: Antimicrobial activity against LS2 Efflux knock-out Haemophilus influenzae).
Format: functional

Compound	MIC
CCCCCCCCCC/C(NCCCOC(C)C)=C1\C(=O)C(CCSC)N(C(C)=O)C1=O (stereo not given)	> 32 µg/mL
CCN(CC)CCCC(C)N/C(CCCOc1ccccc1)=C1/C(=O)C(CC(C)C)N(C(=O)c2ccccc2)C1=O (stereo not given)	> 32 µg/mL
CC(C)(C)[C@H]1OC[C@@H]2C(=O)/C(=C(/NCCCCN)c3ccccc3)C(=O)N21	> 32 µg/mL
CC1CCCCN1CCCN/C(CC12CC3CC(C)(CC(C)(C3)C1)C2)=C1/C(=O)[C@@H]2CCCC(=O)N2C1=O (stereo not given in full)	> 32 µg/mL

What follows are molecules tested on Streptococcus pneumoniae (assay: Antimicrobial activity against penicillin- and erythromycin-resistant Streptococcus pneumoniae).
Format: functional

Compound	MIC
CCCCCCCCCC/C(NCCCOC(C)C)=C1\C(=O)C(CCSC)N(C(C)=O)C1=O (stereo not given)	> 32 µg/mL
CCN(CC)CCCC(C)N/C(CCCOc1ccccc1)=C1/C(=O)C(CC(C)C)N(C(=O)c2ccccc2)C1=O (stereo not given)	> 32 µg/mL
CC(C)(C)[C@H]1OC[C@@H]2C(=O)/C(=C(/NCCCCN)c3ccccc3)C(=O)N21	> 32 µg/mL
CC1CCCCN1CCCN/C(CC12CC3CC(C)(CC(C)(C3)C1)C2)=C1/C(=O)[C@@H]2CCCC(=O)N2C1=O (stereo not given in full)	> 32 µg/mL

What follows are molecules tested on Enterococcus faecium (assay: Antimicrobial activity against vancomycin-resistant Enterococcus faecium).
Format: functional

Compound	MIC
CCCCCCCCCC/C(NCCCOC(C)C)=C1\C(=O)C(CCSC)N(C(C)=O)C1=O (stereo not given)	> 32 µg/mL
CCN(CC)CCCC(C)N/C(CCCOc1ccccc1)=C1/C(=O)C(CC(C)C)N(C(=O)c2ccccc2)C1=O (stereo not given)	> 32 µg/mL
CC(C)(C)[C@H]1OC[C@@H]2C(=O)/C(=C(/NCCCCN)c3ccccc3)C(=O)N21	> 32 µg/mL
CC1CCCCN1CCCN/C(CC12CC3CC(C)(CC(C)(C3)C1)C2)=C1/C(=O)[C@@H]2CCCC(=O)N2C1=O (stereo not given in full)	> 32 µg/mL

Each molecule was assayed on Staphylococcus aureus (assay: Antimicrobial activity against methicillin-sensitive Staphylococcus aureus ATCC 13709).
Format: functional

Compound	MIC
CCCCCCCCCC/C(NCCCOC(C)C)=C1\C(=O)C(CCSC)N(C(C)=O)C1=O (stereo not given)	> 32 µg/mL
CCN(CC)CCCC(C)N/C(CCCOc1ccccc1)=C1/C(=O)C(CC(C)C)N(C(=O)c2ccccc2)C1=O (stereo not given)	> 32 µg/mL
CC(C)(C)[C@H]1OC[C@@H]2C(=O)/C(=C(/NCCCCN)c3ccccc3)C(=O)N21	> 32 µg/mL
CC1CCCCN1CCCN/C(CC12CC3CC(C)(CC(C)(C3)C1)C2)=C1/C(=O)[C@@H]2CCCC(=O)N2C1=O (stereo not given in full)	> 32 µg/mL

These molecules were tested on Enterococcus faecalis (assay: Antimicrobial activity against vancomycin-susceptible Enterococcus faecalis ATCC 29212).
Format: functional

Compound	MIC
CCCCCCCCCC/C(NCCCOC(C)C)=C1\C(=O)C(CCSC)N(C(C)=O)C1=O (stereo not given)	> 32 µg/mL
CCN(CC)CCCC(C)N/C(CCCOc1ccccc1)=C1/C(=O)C(CC(C)C)N(C(=O)c2ccccc2)C1=O (stereo not given)	> 32 µg/mL
CC(C)(C)[C@H]1OC[C@@H]2C(=O)/C(=C(/NCCCCN)c3ccccc3)C(=O)N21	> 32 µg/mL
CC1CCCCN1CCCN/C(CC12CC3CC(C)(CC(C)(C3)C1)C2)=C1/C(=O)[C@@H]2CCCC(=O)N2C1=O (stereo not given in full)	> 32 µg/mL

What follows are molecules tested on Staphylococcus aureus (assay: Antimicrobial activity against methicillin-resistant Staphylococcus aureus).
Format: functional

Compound	MIC
CCCCCCCCCC/C(NCCCOC(C)C)=C1\C(=O)C(CCSC)N(C(C)=O)C1=O (stereo not given)	> 32 µg/mL
CCN(CC)CCCC(C)N/C(CCCOc1ccccc1)=C1/C(=O)C(CC(C)C)N(C(=O)c2ccccc2)C1=O (stereo not given)	> 32 µg/mL
CC(C)(C)[C@H]1OC[C@@H]2C(=O)/C(=C(/NCCCCN)c3ccccc3)C(=O)N21	> 32 µg/mL
CC1CCCCN1CCCN/C(CC12CC3CC(C)(CC(C)(C3)C1)C2)=C1/C(=O)[C@@H]2CCCC(=O)N2C1=O (stereo not given in full)	> 32 µg/mL

Each molecule was assayed on Streptococcus pneumoniae (assay: Antimicrobial activity against erythromycin-susceptible Streptococcus pneumoniae ATCC 49619).
Format: functional

Compound	MIC
CCCCCCCCCC/C(NCCCOC(C)C)=C1\C(=O)C(CCSC)N(C(C)=O)C1=O (stereo not given)	> 32 µg/mL
CCN(CC)CCCC(C)N/C(CCCOc1ccccc1)=C1/C(=O)C(CC(C)C)N(C(=O)c2ccccc2)C1=O (stereo not given)	> 32 µg/mL
CC(C)(C)[C@H]1OC[C@@H]2C(=O)/C(=C(/NCCCCN)c3ccccc3)C(=O)N21	> 32 µg/mL
CC1CCCCN1CCCN/C(CC12CC3CC(C)(CC(C)(C3)C1)C2)=C1/C(=O)[C@@H]2CCCC(=O)N2C1=O (stereo not given in full)	> 32 µg/mL

These molecules were tested on Escherichia coli (assay: Antimicrobial activity against Escherichia coli 50).
Format: functional

Compound	MIC
CCCCCCCCCC/C(NCCCOC(C)C)=C1\C(=O)C(CCSC)N(C(C)=O)C1=O (stereo not given)	> 32 µg/mL
CCN(CC)CCCC(C)N/C(CCCOc1ccccc1)=C1/C(=O)C(CC(C)C)N(C(=O)c2ccccc2)C1=O (stereo not given)	> 32 µg/mL
CC(C)(C)[C@H]1OC[C@@H]2C(=O)/C(=C(/NCCCCN)c3ccccc3)C(=O)N21	> 32 µg/mL
CC1CCCCN1CCCN/C(CC12CC3CC(C)(CC(C)(C3)C1)C2)=C1/C(=O)[C@@H]2CCCC(=O)N2C1=O (stereo not given in full)	> 32 µg/mL

What follows are molecules tested on Haemophilus influenzae (assay: Antimicrobial activity against Haemophilus influenzae ATCC 31517 MMSA).
Format: functional

Compound	MIC
CCCCCCCCCC/C(NCCCOC(C)C)=C1\C(=O)C(CCSC)N(C(C)=O)C1=O (stereo not given)	> 32 µg/mL
CCN(CC)CCCC(C)N/C(CCCOc1ccccc1)=C1/C(=O)C(CC(C)C)N(C(=O)c2ccccc2)C1=O (stereo not given)	> 32 µg/mL
CC(C)(C)[C@H]1OC[C@@H]2C(=O)/C(=C(/NCCCCN)c3ccccc3)C(=O)N21	> 32 µg/mL
CC1CCCCN1CCCN/C(CC12CC3CC(C)(CC(C)(C3)C1)C2)=C1/C(=O)[C@@H]2CCCC(=O)N2C1=O (stereo not given in full)	> 32 µg/mL
